# Reference: patent publication US20260234136A1, “ISOXAZOLIDINES AS RIPK1 INHIBITORS AND USE THEREOF” (GENZYME CORPORATION, priority 2023, published 2026)
# What was measured:
# [1] = system: U937 cells; assay: Cellular assay in U937 cells to measure the activity of RIPK1-inhibitors on cell death (necroptosis); type: cell-based; settings: Homo sapiens, U-937, 50 μM zVAD.fmk and 100 ng/ml recombinant human TNFα, overnight (18 to 24 hrs), MTS readout
# [2] = physchem; settings: 50 mM phosphate buffer, 25 °C, pH 7.4, aqueous buffer, thermodynamic from solid
Compound,solubility at 16 h [2],IC50 [1]
"Cc1ccc([C@@H]2CCON2C(=O)C2CCN(c3ncc(F)c(-n4ccnc4C)n3)CC2)cn1 [Example 77, [1-[5-fluoro-4-(2-methylimidazol-1-yl)pyrimidin-2-yl]piperidin-4-yl]-[(3S)-3-(6-methylpyridin-3-yl)-1,2-oxazolidin-2-yl]methanone]",> 1110 µM,1 nM
"Cc1ccc([C@@H]2CCON2C(=O)C2CCN(c3cc(N4CCCC4=O)ncn3)CC2)cn1 [Example 82, 1-[6-[4-[(3S)-3-(6-methylpyridin-3-yl)-1,2-oxazolidine-2-carbonyl]piperidin-1-yl]pyrimidin-4-yl]pyrrolidin-2-one]",> 1150 µM,10000 nM
"Cc1ccc([C@@H]2CCON2C(=O)C2CCN(c3ccnc(N4CCC(C)(C)C4=O)n3)CC2)cn1 [Example 84, 3,3-dimethyl-1-[4-[4-[(3S)-3-(6-methylpyridin-3-yl)-1,2-oxazolidine-2-carbonyl]piperidin-1-yl]pyrimidin-2-yl]pyrrolidin-2-one]",> 1080 µM,8130 nM
"Cc1ccc([C@@H]2CCON2C(=O)C2CCN(c3nccc(N4C(=O)CCC4(C)C)n3)CC2)cn1 [Example 88, 5,5-dimethyl-1-[2-[4-[(3S)-3-(6-methylpyridin-3-yl)-1,2-oxazolidine-2-carbonyl]piperidin-1-yl]pyrimidin-4-yl]pyrrolidin-2-one]",> 1080 µM,1360 nM
"O=C1CCCN1c1ccnc(N2CC[C@@H](C(=O)N3OCC[C@H]3c3cnccn3)C3(CC3)C2)n1 [Example 100, 1-[2-[(8R)-8-[(3S)-3-pyrazin-2-yl-1,2-oxazolidine-2-carbonyl]-5-azaspiro[2.5]octan-5-yl]pyrimidin-4-yl]pyrrolidin-2-one]",269 µM,12 nM
"Cc1ncc([C@@H]2CCON2C(=O)C2CCN(c3nccc(-c4cc(N)nn4C)n3)CC2)cc1F [Example 102, [1-[4-(5-amino-2-methylpyrazol-3-yl)pyrimidin-2-yl]piperidin-4-yl]-[(3S)-3-(5-fluoro-6-methylpyridin-3-yl)-1,2-oxazolidin-2-yl]methanone]",> 1070 µM,1 nM
"Cc1cncc([C@@H]2CCON2C(=O)C2CCN(c3ncc(F)c(N4CCC5(CC5)C4=O)n3)CC2)c1 [Example 103, 5-[5-fluoro-2-[4-[(3S)-3-(5-methylpyridin-3-yl)-1,2-oxazolidine-2-carbonyl]piperidin-1-yl]pyrimidin-4-yl]-5-azaspiro[2.4]heptan-4-one]",> 1040 µM,6 nM
"O=C(C1CCN(c2ncc(F)c(N3CCC4(CC4)C3=O)n2)CC1)N1OCC[C@H]1c1cncc(F)c1 [Example 104, 5-[5-fluoro-2-[4-[(3S)-3-(5-fluoropyridin-3-yl)-1,2-oxazolidine-2-carbonyl]piperidin-1-yl]pyrimidin-4-yl]-5-azaspiro[2.4]heptan-4-one]",> 1030 µM,2 nM

# More lines, main results first:
solubility at 16 h [2],Compound,IC50 [1]
98.4 µM,"O=C(C1CCN(c2nccc(N3CCC(F)(F)C3=O)n2)CC1)N1OCC[C@H]1c1cncc(F)c1 [Example 75, 3,3-difluoro-1-[2-[4-[(3S)-3-(5-fluoropyridin-3-yl)-1,2-oxazolidine-2-carbonyl]piperidin-1-yl]pyrimidin-4-yl]pyrrolidin-2-one]",58 nM
> 1150 µM,"Cc1ccc([C@@H]2CCON2C(=O)C2CCN(c3nccc(N4CCCC4=O)n3)CC2)cn1 [Example 81, 1-[2-[4-[(3S)-3-(6-methylpyridin-3-yl)-1,2-oxazolidine-2-carbonyl]piperidin-1-yl]pyrimidin-4-yl]pyrrolidin-2-one]",52 nM
> 1130 µM,"O=C1OCCN1c1ccnc(N2CCC(C(=O)N3OCC[C@H]3c3cncc(F)c3)CC2)n1 [Example 91, 3-[2-[4-[(3S)-3-(5-fluoropyridin-3-yl)-1,2-oxazolidine-2-carbonyl]piperidin-1-yl]pyrimidin-4-yl]-1,3-oxazolidin-2-one]",7 nM
> 1040 µM,"CO[C@@H]1CCCN(c2ccnc(N3CCC(C(=O)N4OCC[C@H]4c4ccc(C)nc4)CC3)n2)C1=O [Example 93, (3R)-3-methoxy-1-[2-[4-[(3S)-3-(6-methylpyridin-3-yl)-1,2-oxazolidine-2-carbonyl]piperidin-1-yl]pyrimidin-4-yl]piperidin-2-one]",436 nM
> 1040 µM,"CO[C@H]1CCCN(c2ccnc(N3CCC(C(=O)N4OCC[C@H]4c4ccc(C)nc4)CC3)n2)C1=O [Example 94, (3S)-3-methoxy-1-[2-[4-[(3S)-3-(6-methylpyridin-3-yl)-1,2-oxazolidine-2-carbonyl]piperidin-1-yl]pyrimidin-4-yl]piperidin-2-one]",216 nM
> 1170 µM,"Cc1nc([C@@H]2CCON2C(=O)C2CCN(c3nccc(N4CCCC4=O)n3)CC2)co1 [Example 95, 1-[2-[4-[(3S)-3-(2-methyl-1,3-oxazol-4-yl)-1,2-oxazolidine-2-carbonyl]piperidin-1-yl]pyrimidin-4-yl]pyrrolidin-2-one]",26 nM
> 1030 µM,"CO[C@@H]1CCCN(c2ccnc(N3CCC(C(=O)N4OCC[C@H]4c4cncc(F)c4)CC3)n2)C1=O [Example 96, (3R)-1-[2-[4-[(3S)-3-(5-fluoropyridin-3-yl)-1,2-oxazolidine-2-carbonyl]piperidin-1-yl]pyrimidin-4-yl]-3-methoxypiperidin-2-one]",149 nM
> 1030 µM,"CO[C@H]1CCCN(c2ccnc(N3CCC(C(=O)N4OCC[C@H]4c4cncc(F)c4)CC3)n2)C1=O [Example 97, (3S)-1-[2-[4-[(3S)-3-(5-fluoropyridin-3-yl)-1,2-oxazolidine-2-carbonyl]piperidin-1-yl]pyrimidin-4-yl]-3-methoxypiperidin-2-one]",86 nM
